Reference: US10550094B2, “Compounds having antioxidant activity against free radicals and anti-inflammatory activity, and corresponding pharmaceutical or cosmetic compositions for skin care” (GIULIANI S.P.A., priority 2015, dated 2020)

How the values were obtained:
[1] = HORAC Hydroxyl radical antioxidant capacity assay
Source text: HORAC Assay: Hydroxyl Antioxidant Capacity In Vitro
The commercial kit “Oxiselect Hydroxyl Radical Antioxidant Capacity (HORAC) activity assay” (Cell Biolabs).
The HORAC assay esxpresses the compound antiradical capacity towards the hydroxyl radical OH′ and is based on the oxidation of a fluorescent probe by hydroxyl radicals through a hydrogen transfer process (HAT). Hydroxyl radicals are produced by a radical initiator hydroxyl and by Fenton's reagent, which quenches the fluorescent probe over time. The antioxidants present in the sample block the oxidation by the hydroxyl radical of the fluorescent probe until the antioxidant activity in the sample runs out. The remaining hydroxyl radicals destroy the fluorescence of the fluorescent probe. The antioxidant capacity of the sample is related to the fluorescence decay curve, which usually is represented as the area under the curve (AUC). The AUC is used to quantify the total antioxidant activity of the hydroxyl radical in a sample and is compared to the curve of an antioxidant standard.
The compounds of the invention were tested at the following concentrations: 13.5 μM; 27 μM, 13.5 mM; 27 mM.
For comparison purposes, also samples of the compound monofurfurylidene-2.4-sorbitol defined below by the acronym ARGB11, were in this case tested under the same two concentrations, as a reference compound according to EP0345362 mentioned above as the background art of substances with free radical inhibition activity.

involucrin (IVL) = assay: Skin barrier function protection: involucrin (IVL) gene expression by qRT-PCR in LPS-treated keratinocytes; assay type: cell-based, human; settings: 13.5 μM, with LPS, Control + LPS = 1.000
Method: (§1) The immortalized line of human keratinocytes NCTC2544 is used (Perry V. P. et al., 1957), cultured in sterile flasks ([…]), incubated at 37° C. in a humid atmosphere at 5% CO2 in RPMI culture medium added with bovine fetal serum (FBS), 2 mm glutamine, 1% non-essential amino acids, in the presence of 1% penicillin and streptomycin. The 1:3 split is done every 2 days upon achieving the monolayer by washing with 1×PBS (phosphate buffer without Ca^2+ and Mg^2+) and detachment of cells with a trypsin-EDTA solution at 37° C. for 2 minutes. The cells were kept in culture in 25 cm^3 sterile flasks and incubated at 37° C. in a humid atmosphere at 5% CO2.
(§2) Negative control: untreated cells in RPMI medium added to 2.5% fetal bovine serum (FBS), 1% non-essential amino acids (NEAA), 1% of a penicillin and streptomycin mixture (Pen-Strep Mix), and kept in (12 well) 25 cm^2 culture plates at 37° C. and 5% CO2.
(§3) Positive control: cells in RPMI medium added to 2.5% fetal bovine serum (FBS), 1% non-essential amino acids (NEAA), 1% of a penicillin and streptomycin mixture (Pen-Strep Mix) and 10 μg/mL LPS (lipopolysaccharide) and kept in ([…]) 25 cm^2 culture plates at 37° C. and 5% CO2 (in the dark).
(§4) Study of the Skin Barrier Function Protection
(§5) The gene expression of the involucrin (IVL) and fillagrin (FLG) markers was evaluated by relative quantitative RT-PCR (quantitative reverse transcription-polymerase chain reaction-qRT-PCR).
(§6) This assay involved three sequential steps: • extraction of total RNA; • retrotranscription in cDNA; • qRT-PCR.
(§7) Human keratinocytes NCTC2544 were seeded in 12-well plates at the density of 0.5*10^6 cells/well and incubated until reaching about 80% confluence.
(§8) Then, the cells were incubated for 16 and 24 hours with the active compounds to be tested and the respective controls at the following concentrations: 13.5 and 27 μM, and admixed (in the well) with 10 μg/ml LPS.
(§9) The dilutions were prepared starting from 1000× stock in DMSO, sterile-filtered and using RPMI medium added to 2.5% fetal bovine serum (FBS), 1% non-essential amino acids (NEAA), 1% of a penicillin and streptomycin mixture (Pen-Strep Mix).
(§10) Cells kept in the culture medium alone (RPMI 2.5% FBS) were used as a negative control.
(§11) Cells in the culture medium alone (RPMI 2.5% FBS) and treated only with 10 μg/mL LPS were used as a positive control.
(§12) After incubation, the RNA was extracted. Total RNA was extracted from NCTC 2544 cells using the commercial kit Ribospin™ (GeneAllBiotechnology Co., LTD).
(§13) For RT-PCR amplification, the TaqMan® probe (AppliedBiosystems) method was used. The following TYaqMan probe was used: Hs00846307_s1 (IVL) and Hs00863478_g1 (FLG).
(§14) GAPDH: Hs99999905_m1 was used as control gene (housekeeping).
(§15) The data obtained were analyzed according to the method of 2-ΔΔCt and so it was possible to calculate the relative values of expression of the gene of interest, normalized compared to the housekeeping gene and calibrated on the control sample (untreated cells): ΔΔCt=ΔCttarget-housekeeping (control)−ΔCttarget-housekeeping (treated cells)
(§16) The 2^−ΔΔCt was calculated assuming an amplification efficiency of 100%.

fillagrin (FLG) = assay: Skin barrier function protection: filaggrin (FLG) gene expression by qRT-PCR in LPS-treated keratinocytes; assay type: cell-based, human; settings: 13.5 μM, with LPS, Control + LPS = 1.000
Method: as §1, §2, §3, §4, §5, §6, §7, §8, §9, §10, §11, §12, §13, §14, §15, §16

TNF-α = assay: Anti-inflammatory activity: TNF-α gene expression by qRT-PCR in LPS-treated keratinocytes; assay type: cell-based, human; settings: for TNF-α (relative gene expression): 10 μg/ml LPS, NCTC 2544; for Comparison vs LFS (%): TNF-α vs Control + LPS
Method: as §1, §2, §3
Study of the Anti-inflammatory Activity-NCTC 2544
The gene expression of the TNF-α inflammation marker was evaluated by relative quantitative RT-PCR (quantitative reverse transcription-polymerase chain reaction-qRT-PCR).
as §6
Human keratinocytes NCTC 2544 were seeded in 12-well plates at the density of […] cells/well and incubated until reaching about 80% confluence.
Then, the cells were incubated for 16 and 24 hours with the compounds of the invention to be tested and the respective controls at the following concentrations: 13.5 μM and 27 μM, and admixed (in the well) with 10 μg/ml LPS.
as §9, §10, §11, §12
At the end of incubation with the active compounds of the invention, cells were washed with PBS (1×) and finally subjected to RNA extraction procedure. At the end of the extraction, using a spectrophotometer (Jenway UV/VIS MOD: 6715, BS-6715B0), concentrations were calculated in μg/mL of total RNA extracted at a wavelength of 260 nm.
For RT-PCR amplification, the TaqMan® probe (AppliedBiosystems) method was used. The following TYaqMan probe was used: Hs00174128_m1 (TNF-α). GAPDH: Hs99999905_m1 was used as control gene (housekeeping).
as §15, with “ΔCt=ΔCttarget-housekeeping” for “ΔΔCt=ΔCttarget-housekeeping”
as §16

[2] = higher dosages (13.5 μM and 27 μM)
[3] = lower concentrations 13.5 μM and 27 μM

Row | Compound | HORAC (Hydroxyl Radical Antioxidant Capacity) ([1]; 13.5 μM) | HORAC (Hydroxyl Radical Antioxidant Capacity) ([1]; 27 μM) | HORAC (Hydroxyl Radical Antioxidant Capacity) ([1]; 13.5 mM) | HORAC (Hydroxyl Radical Antioxidant Capacity) ([1]; 27 mM) | HORAC activity compared with reference ARGB11 [1, 2] | HORAC activity compared with reference ARGB11 [1, 3] | (IVL) 16 h RQ ± SEM (involucrin (IVL)) | (FLG) 16 h RQ ± SEM (fillagrin (FLG)) | TNF-α (relative gene expression) (TNF-α; 13.5 μM, 16 h) | Comparison vs LFS (%) (TNF-α; 13.5 μM, 16 h) | TNF-α (relative gene expression) (TNF-α; 13.5 μM, 24 h) | Comparison vs LFS (%) (TNF-α; 13.5 μM, 24 h) | TNF-α (relative gene expression) (TNF-α; 27 μM, 16 h) | Comparison vs LFS (%) (TNF-α; 27 μM, 16 h) | TNF-α (relative gene expression) (TNF-α; 27 μM, 24 h) | Comparison vs LFS (%) (TNF-α; 27 μM, 24 h) | anti-inflammatory activity (TNF-α), assessment in words (TNF-α; lower dose) | anti-inflammatory activity (TNF-α), assessment in words (TNF-α; higher dose)
1 | CC(=O)OCC1OC(c2ccco2)OC(C(COC(C)=O)OC(C)=O)C1OC(C)=O (centres unmarked) [Tetracetyl sorbityl furfural, tetracetyl sorbityl furfural] | 797.50 μMole GAE/L | 171.083 μMole GAE/L | 330.960 μMole GAE/L | 428.775 μMole GAE/L | fully comparable activity | higher than the selected reference ARGB11 | 57.282 ± 17.060 | 11.158 ± 5.679 | 0.35 | 89.06% | 5.75 | 71.78% | 0.28 | 91.18% | 0.12 | 99.39% |  | 
2 | O=C(OCC1OC(c2ccco2)OC(C(COC(=O)c2ccccc2)OC(=O)c2ccccc2)C1OC(=O)c1ccccc1)c1ccccc1 (centres unmarked) [Tetrabenzoyl sorbityl furfural, tetrabenzoyl sorbityl furfural] | 37.65 μMole GAE/L | 41.485 μMole GAE/L | 300.856 μMole GAE/L | 211.479 μMole GAE/L | fully comparable activity | fully comparable activity | 9.563 ± 1.159 | 22.864 ± 7.892 | 0.63 | 80.28% | 2.51 | 87.69% | 0.45 | 85.81% | 0.28 | 98.63% |  | 
3 | COc1cc(C2OC(CO)C(O)C(C(O)CO)O2)ccc1O (centres unmarked) [Sorbityl vanillinal, sorbityl vanillinal] | 70.29 μMole GAE/L | 115.422 μMole GAE/L | 3544.098 μMole GAE/L | 3261.945 μMole GAE/L | higher activity than the selected reference ARGB11 | higher than the selected reference ARGB11 | 18.347 ± 1.664 | 4.408 ± 2.683 | 0.04 | 98.64% | 0.09 | 99.57% | 0.15 | 95.44% | 0.21 | 98.95% | remarkable | 
4 | OCC(O)C1OC(c2ccccc2)OC(CO)C1O (centres unmarked) [Sorbityl benzal, sorbityl benzal] | 31.04 μMole GAE/L | 40.110 μMole GAE/L | 308.497 μMole GAE/L | 408.795 μMole GAE/L | fully comparable activity | fully comparable activity | 6.646 ± 1.733 | 16.971 ± 2.987 | 0.39 | 87.93% | 0.71 | 96.50% | 0.08 | 97.62% | 0.01 | 99.97% |  | particularly significant
5 | OCC1OC(c2ccco2)OC(CO)C1O (centres unmarked) [Xylitil furfural, xylitil furfural] | 418.69 μMole GAE/L | 524.692 μMole GAE/L | 897.479 μMole GAE/L | 1242.582 μMole GAE/L | higher activity than the selected reference ARGB11 | higher than the selected reference ARGB11 | 60.653 ± 14.549 | 64.669 ± 6.930 | 0.03 | 98.96% | 0.03 | 99.85% | 0.18 | 94.37% | 0.18 | 99.10% | remarkable | 
